Experimental data taken from patent US12472226B2, “Cell-permeable peptide” (priority 2019, dated 2025).
Non-standard residues stand in square brackets, D forms with d. No end group written: not given here. *: point of attachment. FITC = O=C1OC2(c3ccc(O)cc3Oc3cc(O)ccc32)c2ccc(NC(=S)*)cc21; Ahx = NCCCCCC(=O)O

Columns and labels:
[1] = test system: HT-1080 cells tumor; experiment: Growth-inhibition and apoptosis of cancer cells in tumor-bearing mice; format: in vivo, BALB/c nude mouse; conditions: 10 mg/kg intraperitoneally every 3 days
Description: HT-1080 cells (1×10^7 cells/200 μL) were subcutaneously implanted into the back of 5 week-old BALB/c nude mouse (CHARLES RIVER LABORATORIES JAPAN, INC.). A tumor after the implantation was confirmed to reach 30 to 60 mm^3, and then they were subjected to the following tests.
Example 2 was dissolved in the sterile water and adjusted to be 200 μg/200 μL by the addition of 2-time concentrated α-MEM (not containing glutamine or an antibiotic). It was intraperitoneally administered to tumor-bearing mice at 10 mg/kg every 3 days. In the control administration group, 200 μL of 1-time concentrated α-MEM was intraperitoneally administered to tumor-bearing mice every 3 days. The mice were weighed on DRETEC weighing scale (DRETEC CO., Ltd., Japan) and the tumor size (estimation volume (shortest diameter×longer diameter×height×pi/6 mm^3)) was measured with a vernier caliper (maximum: 150 mm, minimum: 0.05 mm) (MITUTOYO, Japan) every 3 days.
FIG. 6 is a graph illustrating the transitions of tumor size in the Example 2 and control administration group (N=6). The vertical axis represents the average value of tumor size±standard deviation (SD), and the horizontal axis represents the days after administration. […] In the control administration group, the tumor size on day 24 was more than 1,500 mm^3. On the other hand, the effect of suppressing tumor growth was confirmed as the tumor size was about 600 mm^3 in the Example 2 administration.

[2] = test system: HT-1080 cells; experiment: Test of inducing cell-death in vitro (Calcein-AM/PI dead cell rate); format: cell-based, human; conditions: for increase in the dead cell rate: day 21
Text: (§1) Human fibrosarcoma-derived HT-1080 cells (HT-1080 cells, JCRB cell bank) were used as cancer cells in the test for monitoring changes in mitochondrial membrane potential. HT-1080 cells, human osteosarcoma cell line Hos cells (Hos cells, JCRB cell bank), human histiocytic lymphoma/macrophage U937 cells (U937 cells, JCRB cell bank), human myeloid leukemia HL-60 cells (HL-60 cells, JCRB cell bank), acute monocytic leukemia THP-1 cells (THP-1 cells, JCRB cell bank), human alveolar basal epithelial adenocarcinoma cell A549 cells (A549 cells, Cell Resource Center for Biomedical Research, Institute of Development, Aging and Cancer, Tohoku University), human pancreatic carcinoma cells (MIA Paca 2 cells, Cell Resource Center for Biomedical Research, Institute of Development, Aging and Cancer, Tohoku University) and well differentiated human liver carcinoma-derived cell line HuH7 cells (HuH7 cells, Cell Resource Center for Biomedical Research, Institute of Development, Aging and Cancer, Tohoku University) were used as cancer cells in an in vitro cell-death induction test of cancer cells and a nuclear transport test of Example 2. Normal human gingival fibroblast cells Gin-1 (Gin-1 cells, DS Pharma Biomedical) were used as a control. The above-described cells were each inoculated into a 96-well culture plate (Falcon) at 5,000 cells/[…] and subjected to the following tests.
(§2) The peptide of SEQ ID NO: 1 labeled with FITC (Example 2) was used for the test of inducing cell-death in vitro in cancer cells. It was prepared the test example to which 100 μL of Example 2 and further 10% FBS were added and cultured for 9 days under conditions of 200 μL of serum-supplemented medium (Alpha modification of Eagle's MEM (α-MEM) (Thermo Fisher Scientific)+10% FBS). Furthermore, it was also produced the test example that was cultured for 21 days with the whole amount of Example 2-supplemented medium replaced every 7 days. As a control, the cells were cultured in a serum-supplemented medium (α-MEM+10% FBS) without addition and were used. A supernatant was removed after the completion of the culture. The cells were washed once with PBS and stained in PBS to which a fluorescent dye for living cell staining Calcein-AM (DOJINDO LABORATORIES) (final concentration: 0.1 μg/mL) and a fluorescent dye for dead cell staining Propidium Iodide (PI) (DOJINDO LABORATORIES) (final concentration: 0.3 μg/mL) were added, at 37° C. in a 5% CO2 cell incubator for 30 minutes. The living cells and dead cells were separately stained with Calcein-AM and PI, respectively and imaged with the confocal laser scanning microscope LSM800. Next, the dead cell rate relative to the number of total cells was analyzed using ImageJ.
The results are represented by the average value of the dead cell rate (the number red cells stained with IP/the number of total cells×100(%))±standard deviation (SD). In FIG. 2A, the vertical axis represents the rate of cell death when each cell was cultured with Example 2 (50 μg/mL) for 9 days and the horizontal axis represents various types of cells. The increase in the dead cell rate of the Gin-1 cells was not observed.
The concentrations of Examples 2 and 4 to 6 were adjusted to 12.5, 25, 50 and 100 μg/mL, respectively and then administrated to the HT-1080 cells for 9 days tested by the same method as in Test Example 2A. The cell staining and subsequent analyses of the dead cell rate relative to the number of total cells were performed in the same manner as Test Example 2A.

[3] = test system: HuH7 cells; experiment: as above; format: cell-based, human
Text: as §1, §2
(§3) The amount of administration of Example 2 was adjusted to 50 μg/mL and was used for 9-, 16- or 23-day administration test in the A549, MIA Paca2 or HuH7 cells by the same method as in Test Example 2A above. The cell staining and subsequent analyses of the dead cell rate relative to the number of total cells were performed in the same manner as Test Example 2A above.

[4] = test system: A549 cells; experiment: as above; format: cell-based, human; conditions: for dead cell rate: 50 μg/mL
Text: as §1, §2, §3

[5] = test system: MIA Paca2 cells; experiment: as above; format: cell-based, human; conditions: for dead cell rate: 50 μg/mL
Text: as §1, §2, §3

[6] = test system: HL-60 cells; experiment: Test on nuclear transport (confocal Z scan, DAPI); format: cell-based, human; conditions: H1-60 cells, 50 μg/mL, 9 days
Text: as §1
(§4) Further, 50 μg/mL of Example 2 was added to the Gin-1 or above cancer cells. The cells were cultured for 9 days and scanned with Z scan technique using the confocal laser scanning microscope LSM800 after dyed with DAPI. FIG. 5A is each photograph of XY, XZ and YZ cross sections that was merged with Example 2 (green) and DAPI (blue) in the Gin-1 or above-described cancer cells. […] The color of the images merged with the Example 2 and DAPI dye took on light blue in the U937, H1-60, THP-1 and Hos cells.

[7] = test system: Hos cells; experiment: Test on nuclear transport (confocal Z scan, DAPI); format: cell-based, human; conditions: 50 μg/mL, 9 days
Text: as §1, §4

Example 2: peptide of SEQ ID NO: 1 labeled with FITC, bound via an Ahx linker at the N-terminus ({FITC}-[Ahx]KDNRGNLLQCVCTGNGRGEWKC; cysteine pairing not given here)
growth inhibition of the tumor compared with the control administration group ([1]; between days 12 and 24): significant difference at a level of 1% | tumor size ([1]; day 24, N=6): about 600 mm^3 | tumor shrinkage ([1]; to the 33th day): tendency to shrink the tumor was confirmed | increase in the dead cell rate ([2]; 6.25 μg/mL): ≥ 75% | increase in the dead cell rate ([2]; 12.5 μg/mL): ≥ 75% | increase in the dead cell rate ([2]; 25 μg/mL): ≥ 95% | increase in the dead cell rate vs control ([2]; 50 μg/mL, 9 days): significant difference at the level of 1% | increase in the dead cell rate ([2]; 50 μg/mL): ≥ 95% | increase in the dead cell rate ([2]; 100 μg/mL): ≥ 95% | effect of administration (dead cell rate) on day 9 compared with later days ([3]; 50 μg/mL): substantially same as that of days 16 and 23 | increase in the dead cell rate vs control ([3]; 50 μg/mL, 9, 16 or 23 days): significant difference was recognized at the level of 1% | increase in the dead cell rate vs control ([4]; 50 μg/mL, 9, 16 or 23 days): significant difference was recognized at the level of 1% | dead cell rate ([4]; day 9): ~50% | dead cell rate ([4]; day 16): ~60% | dead cell rate ([4]; day 21): ≥ 80% | increase in the dead cell rate vs control ([5]; 50 μg/mL, 9, 16 or 23 days): significant difference was recognized at the level of 1% | dead cell rate ([5]; day 9): about 10% | dead cell rate ([5]; day 16): ~50% | dead cell rate ([5]; day 23): about 80% | intracellular localization [6]: transfer to a nucleus and bind to a chromosome DNA | intracellular localization [7]: transfer to a nucleus and bind to a chromosome DNA
